From patent US20110177136A1, “METHOD AND PRODUCT” (priority 2008, published 2011)
≈ marks a conversion by molar mass, not a printed value.

What was measured:
[1] = 24 h
physchem = conditions: 37 °C, water, thermodynamic from solid
[2] = In vitro dissolution test in simulated gastric fluid (USP 24 type II apparatus); assay type: physicochemical; conditions: 900 ml SGF pH 2, 37±0.5° C., 100 rpm, equivalent to 200 mg carbamazepine
Procedure: SGF was prepared with 2 g/L NaCl and 1 g/L Triton X-100, and acidified to pH 2 with HCl. Bath temperature was maintained at 37±0.5° C. and stirred at 100 rpm. Samples were collected at 15, 30 and 60 min and replaced with a fresh dissolution medium. After centrifugation, filtration through 0.45 μm membrane filter and suitable dilution, concentration of carbamazepine was determined spectrophotometrically at 320 nm.

For `NC(=O)N1c2ccccc2C=Cc2ccccc21` [Carbamazepine, carbamazepine], the “Saturation Solubility” value [1] was 290 µg/mL, the solubility at 24 h (physchem) was 290 µg/mL (≈ 1230 µM) and the “Percentage of Carbamazepine released” value ([2]; 15 min, listed as pure carbamazepine) was 43.48%. The “Percentage of Carbamazepine released” value ([2]; 15 min, listed as pure drug) was 43.48 ± 2.23%, the “Percentage of Carbamazepine released” value ([2]; 30 min, listed as pure carbamazepine) was 59.29% and the “Percentage of Carbamazepine released” value ([2]; 30 min, listed as pure drug) was 59.29 ± 2.21%. For the same molecule, the “Percentage of Carbamazepine released” value ([2]; 60 min, listed as Pure carbamazepine) was 69.11% and the “Percentage of Carbamazepine released” value ([2]; 60 min, listed as pure drug) was 69.11 ± 2.24%.
